Source: ChEMBL document CHEMBL5338779, “Discovery, Synthesis, and In Vitro Characterization of 2,3 Derivatives of 4,5,6,7-Tetrahydro-Benzothiophene as Potent Modulators of Retinoic Acid Receptor-Related Orphan Receptor γt” (J Med Chem, 2023)
pIC50: −log10 of the molar value. In brackets after ≈: the same amount, converted by molar mass. Activity calls are given as the source filed them. No cut-off for these calls is given here.

Columns and labels:
[1] = target: T1, Nuclear receptor ROR-gamma (Homo sapiens) (UniProt P51449); conditions: HEK293T, filed as inverse agonist, dose 0.004-1000 nM
T1 sequence (whole entry): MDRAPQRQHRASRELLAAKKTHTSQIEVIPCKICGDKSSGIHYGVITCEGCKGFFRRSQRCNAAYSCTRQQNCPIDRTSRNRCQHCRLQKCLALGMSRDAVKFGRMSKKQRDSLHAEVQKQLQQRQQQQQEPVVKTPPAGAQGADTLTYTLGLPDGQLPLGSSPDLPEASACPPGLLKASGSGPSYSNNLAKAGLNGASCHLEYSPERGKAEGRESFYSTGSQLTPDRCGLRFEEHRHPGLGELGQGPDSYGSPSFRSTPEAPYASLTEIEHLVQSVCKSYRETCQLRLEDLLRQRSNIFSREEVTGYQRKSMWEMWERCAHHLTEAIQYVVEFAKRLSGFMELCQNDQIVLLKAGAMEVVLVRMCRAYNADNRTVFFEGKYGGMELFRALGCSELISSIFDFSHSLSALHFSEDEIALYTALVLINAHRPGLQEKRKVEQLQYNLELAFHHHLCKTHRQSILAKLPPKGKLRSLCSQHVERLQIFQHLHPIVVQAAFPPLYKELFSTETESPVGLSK

physchem [2] = conditions: PBS, pH 7.4
[3] = target: T2, Nuclear receptor ROR-gamma (Homo sapiens, UniProt P51449); assay: biochemical; format: cell-based, Insect cell
T2 sequence (P51449 whole entry): T1 sequence (whole entry)

[4] = Lipophilicity, logD of the compound at pH 7.4; conditions: buffer
physchem [5] = conditions: citrate buffer, pH 5
[6] = Apparent permeability across apical to basolateral side in human Caco-2 cells measured after 90 mins by LC-MS/MS analysis; conditions: caco-2, 1.5 h
[7] = Apparent permeability across apical to basolateral side in MDCKII-MDR1 cells at 10 uM incubated for 90 mins by LC-MS/MS analysis; conditions: dog, mdck-mdr1, 1.5 h
physchem [8] = conditions: fasted state simulated gastric fluid, pH 1.6
[9] = buffer, pH 7.4, 2 h
[10] = target: T1, Nuclear receptor ROR-gamma (Homo sapiens); assay: Inverse agonist activity at RORgammaT in human PBMC cells assessed as reduction in CD4-positive IL17A-positive cells in Th17 polarization at 10 nM incubated for 48 hrs relative to control; format: cell-based; design: scale not given: the % may be the effect or the level left
PBMC [11] = assay: Cytotoxicity against human PBMC cells assessed as cell death by flow cytometry method; format: toxicity, cell-based
[12] = target: T1, Nuclear receptor ROR-gamma (Homo sapiens); assay: Inverse agonist activity at RORgammaT in human PBMC cells assessed as reduction in IFNgamma-positive T cells in Th17 polarization at 10 nM incubated for 48 hrs; format: cell-based
PBMC [13] = assay: Cytotoxicity against human PBMC cells assessed as reduction in cell viability by flow cytometry method; format: toxicity, cell-based
[14] = Substrate activity at P-gp in MDCKII-MDR1 cells assessed as efflux ratio of apparent permeability from apical to basolateral side over basolateral to apical side at 10 uM incubated for 90 mins by LC-MS/MS analysis; conditions: dog, mdckii-mdr1, 1.5 h
[15] = Efflux ratio of apparent permeability from apical to basolateral side over basolateral to apical side in MDCKII-MDR1 cells at 10 uM incubated for 90 mins in presence of cyclosporine A by LC-MS/MS analysis; conditions: dog, mdck-mdr1, 1.5 h
[16] = target: T1, Nuclear receptor ROR-gamma (Homo sapiens); assay: Inverse agonist activity at RORgammaT in human PBMC cells assessed as reduction in IL22-positive T cells in Th17 polarization at 10 nM incubated for 48 hrs; format: cell-based
PBMC [17] = assay: Cytotoxicity against human PBMC cells assessed as increase in cell proliferation by flow cytometry method; format: toxicity, cell-based
[18] = target: T1, Nuclear receptor ROR-gamma (Homo sapiens); assay: Inverse agonist activity at RORgammaT in human PBMC cells assessed as reduction in CD4-positive IL21-positive cells in Th17 polarization at 10 nM incubated for 48 hrs relative to control; format: cell-based; design: scale not given: the % may be the effect or the level left
PBMC [19] = assay: Induction of apoptosis in human PBMC cells by flow cytometry method; format: toxicity, cell-based

SMILES | deltaG [1] [kcal/mol] | solubility kinetic at 2 h (physchem [2]) [µM] | pIC50 [3] | logD [4] | solubility kinetic at 2 h (physchem [5]) [µM] | Papp [6] | Papp [7] | solubility kinetic at 2 h (physchem [8]) [µM] | also measured
O=C(NCc1ccccc1)c1c(NC(=O)C(F)(F)F)sc2c1CCCC2 | -10.2 | 28.8 (≈ 11 µg/mL) | 8.68 | 4.43 |  |  |  |  | 
CC1CCc2c(sc(NC(=O)c3ccccc3F)c2C(=O)N2CCN(C)CC2)C1 (stereo not drawn) |  | 27.7 (≈ 11.5 µg/mL) |  | 3.59 | 349 (≈ 145 µg/mL) | 28.2 10^-6 cm/s | 28.9 10^-6 cm/s | ≥ 400 | 
O=C(Nc1sc2c(c1C(=O)NCC1CCNCC1)CCCC2)c1cccnc1 | -7.29 | 84.7 (≈ 33.8 µg/mL) | 7.24 | 0.4 |  |  |  |  | 
CCc1ccc(N(CC(C)C)S(=O)(=O)c2ccc(OCC3CCOCC3)c(CO)c2)cc1 [GSK2981278] |  |  | 8.77 | 4.11 |  |  |  |  | Kinetic_solubility [9]: Insoluble
O=C(CN1CCCCC1)Nc1sc2c(c1C(=O)NCc1ccccc1)CCCC2 | -10.3 | 19.7 (≈ 8.11 µg/mL) | 8.67 | 4.33 |  |  |  |  | 
O=C(Nc1sc2c(c1C(=O)c1ccccc1)CCCC2)c1cnccn1 | -10.1 | 18.3 (≈ 6.67 µg/mL) | 7.71 | 4.15 |  |  |  |  | 
Cc1cnc(S(C)(=O)=O)nc1C(=O)Nc1sc2c(c1C(=O)c1ccccc1)CCCC2 | -10.1 | ≤ 1 | 7.78 | 3.94 |  |  |  |  | 
CC1CCN(CC(=O)Nc2sc3c(c2C(=O)NCc2ccccc2)CCCC3)CC1 |  | 12.4 (≈ 5.29 µg/mL) |  | 4.57 | 3.02 (≈ 1.29 µg/mL) | 1.2 10^-6 cm/s | 1.3 10^-6 cm/s | 364 (≈ 155 µg/mL) | 
CSc1ncc(Cl)c(C(=O)Nc2sc3c(c2C(=O)NCc2ccccc2)CCCC3)n1 | -11.6 | ≤ 1 | 9.40 | 5.45 |  | 4.2 10^-6 cm/s | 8 10^-6 cm/s |  | Activity [10]: 20%; Activity (PBMC [11]): Non-Toxic; Activity [12]: inactive; Activity (PBMC [13]): Non-Toxic; Ratio [14]: 0.3; Ratio [15]: 0.3; Activity [16]: inactive; Activity (PBMC [17]): Non-Toxic; Activity [18]: 20%; Activity (PBMC [19]): Non-Toxic
C[C@@H](C#N)NC(=O)c1c(NC(=O)c2cccnc2)sc2c1CCCC2 |  | 90.9 (≈ 32.2 µg/mL) |  | 2.85 |  |  |  |  | 
CN1CCN(CC(=O)Nc2sc3c(c2C(=O)NCc2ccccc2)CCCC3)CC1 | -12.5 | 99.3 (≈ 42.4 µg/mL) | 8.93 | 3.06 | 357 (≈ 152 µg/mL) | 4.6 10^-6 cm/s | 6.8 10^-6 cm/s | ≥ 400 | Ratio [14]: 1.1; Ratio [15]: 1.2
CC1CCCN1C(=O)c1c(NC(=O)c2cccnc2)sc2c1CCCC2 (stereo not drawn) | -7.57 | 31.3 (≈ 11.6 µg/mL) | 8.45 | 3.68 | 392 (≈ 145 µg/mL) | 34.2 10^-6 cm/s | 29 10^-6 cm/s | ≥ 400 | Ratio [14]: 0.8; Ratio [15]: 0.8
C[C@@H]1CCN(C(=O)c2c(NC(=O)c3cccnc3)sc3c2CCCC3)[C@H](C)C1 (single isomer, unassigned) |  | 27 (≈ 10.7 µg/mL) |  | 4.45 | 23.7 (≈ 9.43 µg/mL) |  |  | ≥ 200 | 
O=C(Nc1sc2c(c1C(=O)N1CCC(CO)C1)CCCC2)c1cccnc1 (stereo not drawn) | -6.16 | 79.3 (≈ 30.6 µg/mL) | 7.34 | 2.6 | 365 (≈ 141 µg/mL) | 4.4 10^-6 cm/s | 5.2 10^-6 cm/s | 330 (≈ 127 µg/mL) | Ratio [14]: 4.7; Ratio [15]: 1.4
CN1CCN(C(=O)c2c(NC(=O)c3ccccc3F)sc3c2CCC(C(C)(C)C)C3)CC1 (stereo not drawn) |  | 10.6 (≈ 4.83 µg/mL) |  | 5.06 |  |  |  |  | 
Cn1cnc(CNC(=O)c2c(NC(=O)c3cccnc3)sc3c2CCCC3)n1 | -13.3 | 93.6 (≈ 37.1 µg/mL) | 8.46 | 1.62 |  |  |  |  | 
Cc1ccnc(SCC(=O)Nc2sc3c(c2C(=O)NCc2ccccc2)CCCC3)n1 | -10.2 | 3.23 (≈ 1.46 µg/mL) | 9.16 | 4.92 |  |  |  |  | 
CCC1CCc2c(sc(NC(=O)c3ccnn3C)c2C(=O)Nc2ccccc2C)C1 (stereo not drawn) |  | ≤ 1 |  | 4.72 | 8.13 (≈ 3.44 µg/mL) | 1.8 10^-6 cm/s | 3.2 10^-6 cm/s | 2.8 (≈ 1.18 µg/mL) | 
Cn1ccnc1SCC(=O)Nc1sc2c(c1C(=O)NCc1ccccc1)CCCC2 |  | 8.05 (≈ 3.55 µg/mL) |  | 4.44 | 13.6 (≈ 5.97 µg/mL) | 18 10^-6 cm/s | 27.8 10^-6 cm/s | 267 (≈ 118 µg/mL) | 
CC1(C)CCc2c(sc(NC(=O)c3cnccn3)c2C(=O)N2CCOCC2)C1 |  | 34.8 (≈ 13.9 µg/mL) |  | 3 |  |  |  |  | 
CCC1CCN(C(=O)c2c(NC(=O)c3cccnc3)sc3c2CCCC3)C1 (stereo not drawn) |  | 32.9 (≈ 12.6 µg/mL) |  | 4.05 |  |  |  |  | 
CSc1ncc(Cl)c(C(=O)Nc2sc3c(c2C(=O)NC2CCS(=O)(=O)C2)CCC(C)C3)n1 (stereo not drawn) | -9.75 | 40.2 (≈ 20.7 µg/mL) | 8.35 | 3.28 | 9.72 (≈ 5.01 µg/mL) | 1.4 10^-6 cm/s | 2.5 10^-6 cm/s | 1.7 (≈ 0.876 µg/mL) | Ratio [14]: 8.7; Ratio [15]: 1.1
